Results taken from patent US12005044B1, “Treatment of autism spectrum disorders with ergothioneine, selenoneine, or combinations thereof” (Autism Therapeutics Inc., priority 2022, dated 2024).

Key:
ASD individuals = experiment: CARS-2 scoring of ASD individuals before and after three months of ET dietary supplement; type: in vivo, human; set-up: key to CARS-2 Total scores, After treatment / average of total CARS-2 score after treatment: sum of 15 items, 15 (normal) to 60; ≥30 = ASD
Text: Examples are described below for using ET to treat ASD-affected individuals. Each of the four individuals identified in the examples has various severity of ASD. The examples set forth herein are directed to the use of ET dietary supplement for a period of three months.
The examples below therefore adopted the CARS-2 system to evaluate ET treatment effects in four ASD individuals.
To obtain a CARS-2 score, each individual is rated on a scale of 1 (normal) to 4 (severely abnormal) with respect to each of the 15 criteria (“relationship to others”, “imitation”, “emotional response”, “body use”, “object use”, “adaptation to change”, “visual response”, “listening response”, “taste-smell-touch responses”, “fear and nervousness”, “verbal communication”, “non-verbal communication”, “activity level”, “level and reliability of intellectual responses”, and “general impressions”). A total score is obtained by combining all of 15 separate scores, ranging from 15 to 60. A score of 15 is normal. Scores below 30 are considered very mild or non-autistic; 30-36.5 are considered mild to moderate ASD and scores greater than 36.5 are considered severe ASD. The scoring can be provided by either primary care giver or the parents.
Method of treatment: ET (2 mg/kg bw per day, 54 mg daily) powder is dissolved in drinking water (200 mL). The individual is treated by ET for three months. ET has no color, no taste when dissolved in water.
Method of treatment: ET (2 mg/kg bw per day, 42 mg daily) powder is dissolved in drinking water (200 mL). The individual is treated by ET for three months.
Method of treatment: ET (1 mg/kg bw per day, 74 mg daily) powder is dissolved in drinking water (200 mL). The individual is treated by ET for three months.

[1] = EFSA Panel; cited from earlier work
[2] = Example 1, child, ET 2 mg/kg bw per day, three months, before treatment 1.5
[3] = Example 1, child, ET 2 mg/kg bw per day, three months, before treatment 2
[4] = Example 1, child, ET 2 mg/kg bw per day, three months, before treatment 2.5
[5] = Example 1, child, ET 2 mg/kg bw per day, three months, before treatment 3
[6] = Example 2, child, ET 2 mg/kg bw per day, three months, before treatment 1
[7] = Example 2, child, ET 2 mg/kg bw per day, three months, before treatment 2
[8] = Example 2, child, ET 2 mg/kg bw per day, three months, before treatment 3
[9] = Example 3, child (ASD, Asperger's Syndrome), ET 2 mg/kg bw per day, three months, before treatment 1
[10] = Example 3, child (ASD, Asperger's Syndrome), ET 2 mg/kg bw per day, three months, before treatment 1.5
[11] = Example 3, child (ASD, Asperger's Syndrome), ET 2 mg/kg bw per day, three months, before treatment 2.5
[12] = Example 4, person, ET 1 mg/kg bw per day, three months, before treatment 1
[13] = Example 4, person, ET 1 mg/kg bw per day, three months, before treatment 2
[14] = Example 4, person, ET 1 mg/kg bw per day, three months, before treatment 3
[15] = Example 4, person, ET 1 mg/kg bw per day, three months, before treatment 4

C[N+](C)(C)[C@@H](Cc1c[nH]c(=S)[nH]1)C(=O)O [ET, ergothioneine]
CARS-2 Activity level, After treatment (ASD individuals; [2]): 1.5
CARS-2 Adaptation to change, After treatment (ASD individuals; [2]): 1.5
CARS-2 Body use, After treatment (ASD individuals; [2]): 1.5
CARS-2 Fear and nervousness, After treatment (ASD individuals; [3]): 1
CARS-2 Imitation, After treatment (ASD individuals; [3]): 2
CARS-2 Listening response, After treatment (ASD individuals; [3]): 2
CARS-2 Non-verbal communication, After treatment (ASD individuals; [3]): 2
CARS-2 Object use, After treatment (ASD individuals; [3]): 2
CARS-2 Taste-smell-touch responses, After treatment (ASD individuals; [3]): 2
CARS-2 Emotional response, After treatment (ASD individuals; [4]): 2
CARS-2 Relationship to others, After treatment (ASD individuals; [4]): 2
CARS-2 Visual response, After treatment (ASD individuals; [4]): 2.5
CARS-2 General impressions, After treatment (ASD individuals; [5]): 2.5
CARS-2 Level and consistency of intellectual response, After treatment (ASD individuals; [5]): 2
CARS-2 Verbal communication, After treatment (ASD individuals; [5]): 2
CARS-2 Total scores, After treatment (ASD individuals; Example 1, child, ET 2 mg/kg bw per day, three months, before treatment 33): 28.5
CARS-2 Fear and nervousness, After treatment (ASD individuals; [6]): 1
CARS-2 Taste-smell-touch responses, After treatment (ASD individuals; [6]): 1
CARS-2 Adaptation to change, After treatment (ASD individuals; [7]): 2
CARS-2 Body use, After treatment (ASD individuals; [7]): 2
CARS-2 Emotional response, After treatment (ASD individuals; [7]): 2
CARS-2 General impressions, After treatment (ASD individuals; [7]): 1.5
CARS-2 Imitation, After treatment (ASD individuals; [7]): 2
CARS-2 Level and consistency of intellectual response, After treatment (ASD individuals; [7]): 2
CARS-2 Listening response, After treatment (ASD individuals; [7]): 1
CARS-2 Object use, After treatment (ASD individuals; [7]): 2
CARS-2 Visual response, After treatment (ASD individuals; [7]): 2
CARS-2 Activity level, After treatment (ASD individuals; [8]): 3
CARS-2 Non-verbal communication, After treatment (ASD individuals; [8]): 2
CARS-2 Relationship to others, After treatment (ASD individuals; [8]): 2
CARS-2 Verbal communication, After treatment (ASD individuals; [8]): 2
CARS-2 Total scores, After treatment (ASD individuals; Example 2, child, ET 2 mg/kg bw per day, three months, before treatment 32): 27.5
CARS-2 Adaptation to change, After treatment (ASD individuals; [9]): 1
CARS-2 Body use, After treatment (ASD individuals; [9]): 1
CARS-2 Emotional response, After treatment (ASD individuals; [9]): 1
CARS-2 Level and consistency of intellectual response, After treatment (ASD individuals; [9]): 1
CARS-2 Listening response, After treatment (ASD individuals; [9]): 1
CARS-2 Non-verbal communication, After treatment (ASD individuals; [9]): 1
CARS-2 Object use, After treatment (ASD individuals; [9]): 1
CARS-2 Taste-smell-touch responses, After treatment (ASD individuals; [9]): 1
CARS-2 Verbal communication, After treatment (ASD individuals; [9]): 1
CARS-2 Fear and nervousness, After treatment (ASD individuals; [10]): 1
CARS-2 General impressions, After treatment (ASD individuals; [10]): 1.5
CARS-2 Visual response, After treatment (ASD individuals; [10]): 1
CARS-2 Relationship to others, After treatment (ASD individuals; Example 3, child (ASD, Asperger's Syndrome), ET 2 mg/kg bw per day, three months, before treatment 2): 1
CARS-2 Activity level, After treatment (ASD individuals; [11]): 3
CARS-2 Imitation, After treatment (ASD individuals; [11]): 2.5
CARS-2 Total scores, After treatment (ASD individuals; Example 3, child (ASD, Asperger's Syndrome), ET 2 mg/kg bw per day, three months, before treatment 20.5): 19
diagnosis after ET treatment (ASD individuals; Example 3, child, ET 2 mg/kg bw per day, three months): no longer ASD
CARS-2 Adaptation to change, After treatment (ASD individuals; [12]): 1
CARS-2 Body use, After treatment (ASD individuals; [12]): 1
CARS-2 Emotional response, After treatment (ASD individuals; [12]): 1
CARS-2 Fear and nervousness, After treatment (ASD individuals; [13]): 1
CARS-2 Non-verbal communication, After treatment (ASD individuals; [13]): 2
CARS-2 Relationship to others, After treatment (ASD individuals; [13]): 2
CARS-2 Visual response, After treatment (ASD individuals; [13]): 2
CARS-2 General impressions, After treatment (ASD individuals; [14]): 2
CARS-2 Imitation, After treatment (ASD individuals; [14]): 3
CARS-2 Object use, After treatment (ASD individuals; [14]): 3
CARS-2 Taste-smell-touch responses, After treatment (ASD individuals; [14]): 2.5
CARS-2 Verbal communication, After treatment (ASD individuals; [14]): 2
CARS-2 Listening response, After treatment (ASD individuals; Example 4, person, ET 1 mg/kg bw per day, three months, before treatment 3.5): 3
CARS-2 Activity level, After treatment (ASD individuals; [15]): 4
CARS-2 Level and consistency of intellectual response, After treatment (ASD individuals; [15]): 3
CARS-2 Total scores, After treatment (ASD individuals; Example 4, person, ET 1 mg/kg bw per day, three months, before treatment 37.5): 31.5
average of total CARS-2 score after treatment (ASD individuals; examples 1-4, four individuals, decreased from 30.75, T=4.37, P=0.022 by paired student t-test): 26.62
maximum allowed ET dosage based on the no-observed-adverse-effect level (NOAEL) [1]: 800 mg/kg bw per day
